Test results taken from US11098056B2, “UDP glycosyltransferase inhibitors and methods of use” (GENZYME CORPORATION, priority 2018, dated 2021).

Molecular target: T1, UGT8 (Homo sapiens, UniProt Q16880)
T1 construct: host or cells: OE19 cells
T1 sequence (Q16880 21-541): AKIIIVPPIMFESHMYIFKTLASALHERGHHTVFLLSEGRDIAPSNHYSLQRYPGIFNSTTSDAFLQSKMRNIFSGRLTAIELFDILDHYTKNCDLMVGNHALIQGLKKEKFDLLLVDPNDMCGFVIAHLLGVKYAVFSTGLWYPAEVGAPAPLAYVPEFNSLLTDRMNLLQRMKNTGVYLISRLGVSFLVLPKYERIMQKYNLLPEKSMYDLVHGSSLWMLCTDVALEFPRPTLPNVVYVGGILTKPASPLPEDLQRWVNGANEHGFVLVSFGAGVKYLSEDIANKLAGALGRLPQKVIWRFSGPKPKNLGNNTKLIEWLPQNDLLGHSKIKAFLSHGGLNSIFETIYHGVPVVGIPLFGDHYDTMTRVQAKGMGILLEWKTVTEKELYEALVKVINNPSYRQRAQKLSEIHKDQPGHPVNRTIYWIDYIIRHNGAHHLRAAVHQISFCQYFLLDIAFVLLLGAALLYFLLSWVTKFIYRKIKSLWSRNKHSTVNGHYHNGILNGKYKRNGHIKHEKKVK
Experiment: In vitro sulfatide (SFT) synthesis inhibition in OE19 cells, LC-MS/MS readout
Type: cell-based
Conditions: 72 hr, sulfatide by LC-MS/MS, read-out: Potency range (IC50, In-vitro SFT)
Experimental: For medium throughput screening, library compounds were dispensed into CellBIND 384 well plates to a final concentration of 10 μM. OE19 cells (Sigma) were grown in to 70-90% confluency in RPMI 1640+L-glutamine and […]; were trypsinized to achieve suspension and were aliquoted at 2,500 cells/well, total well volume 50 μl. Plates were incubated 72 hr at 37° C. in 5% CO2; supernatant was removed and plates were dried, heat-sealed and stored at −20° C. until analysis.
For IC50 determinations, the same procedure was followed except that test compounds were added to the plate as dose-downs in triplicate to yield concentration response curves.
Mass Spectrometer Analysis of Sulfatide (SFT):
Assay plates were thawed and 85 μl mobile phase B (5 mM ammonium formate^+0.2% formic acid in 50:50 methanol:acetonitrile). Fifteen μl 20 ng/ml C17 SFT in mobile phase B was added as an internal standard.
SFT was analyzed using an Applied Biosystems API-4000 triple quad mass spectrometer interfaced to a Thermo Scientific Multiplex system (LX-4) equipped with four pumps. Chromatography of OE19 cell samples or 2B5-mouse cells treated with compounds was performed using a Waters Acquity UPLC BEH C8 2.1×50 mm column with 1.7 um particle size. The chromatography was performed using the following mobile phases. Mobile phase A (MPA): 0.2% formic acid and 5 mM ammonium formate in deionized water; MPB: see above. The LC method was run in isocratic mode for 4 sequentially running columns using 95% MPB and 5% MPA with flow rate of 1 ml/min and a column temperature of 60° C.
The Triple quad mass spectrometer was run in Negative Ionization mode monitoring the following MRM transitions and using the following parameters:
Electrospray voltage was […], and source temperature was 550° C.

Structure (SMILES)	IC50
CNC(=O)c1csc2c(C(F)(F)F)cc(O[C@H]3CN(C(=O)OCCOC(F)(F)F)C[C@H]3F)nc12 (racemic) [Example 611, 2-(Trifluoromethoxy)ethyl (+/−)-cis-3-fluoro-4-((3-(methylcarbamoyl)-7-(trifluoromethyl)thieno[3,2-b]pyridin-5-yl)oxy)pyrrolidine-1-carboxylate]	< 100 nM
CNC(=O)c1csc2c(C(F)(F)F)cc(OC3CCN(C(=O)OCCOC(F)(F)F)CC3)nc12 [Example 171, 2-(Trifluoromethoxy)ethyl 4-((3-(methylcarbamoyl)-7-(trifluoromethyl)thieno[3,2-b]pyridin-5-yl)oxy)piperidine-1-carboxylate]	< 100 nM
CNC(=O)c1csc2c(C(F)(F)F)c(C)c(O[C@@H]3CCN(C(=O)OC(C)(C)C)C[C@@H]3F)nc12 (racemic) [Example 387, (+/−)-tert-Butyl cis-3-fluoro-4-((6-methyl-3-(methylcarbamoyl)-7-(trifluoromethyl)thieno[3,2-b]pyridin-5-yl)oxy)piperidine-1-carboxylate]	< 100 nM
CNC(=O)c1csc2c(C(F)(F)F)cc(O[C@@H]3CN(C(=O)OC(C)(C)C)C[C@@H]3F)nc12 (racemic) [Example 609, tert-Butyl (+/−)-cis-3-fluoro-4-((3-(methylcarbamoyl)-7-(trifluoromethyl)thieno[3,2-b]pyridin-5-yl)oxy)pyrrolidine-1-carboxylate]	< 100 nM
CNC(=O)c1csc2c(C(F)(F)F)cc(O[C@H]3CN(C(=O)OCC4CC4)C[C@H]3F)nc12 (racemic) [Example 610, Cyclopropylmethyl (+/−)-cis-3-fluoro-4-((3-(methylcarbamoyl)-7-(trifluoromethyl)thieno[3,2-b]pyridin-5-yl)oxy)pyrrolidine-1-carboxylate]	< 100 nM
CNC(=O)c1csc2ccc(N3CCC(OC(=O)N[C@@H](C)COC(F)(F)F)CC3)nc12 [Example 142, 1-(3-(Methylcarbamoyl)thieno[3,2-b]pyridin-5-yl)piperidin-4-yl (S)-(1-(trifluoromethoxy)propan-2-yl)carbamate]	< 100 nM
COC(=O)c1csc2c(C(F)(F)F)cc(N3CCC(OC(=O)NCC4CC4)CC3)nc12 [Example 428, Methyl 5-(4-(((cyclopropylmethyl)carbamoyl)oxy)piperidin-1-yl)-7-(trifluoromethyl)thieno[3,2-b]pyridine-3-carboxylate]	< 100 nM
CNC(=O)c1csc2c(C(F)(F)F)c(C)c(O[C@@H]3CCN(C(=O)O[C@@H](C)COC(F)(F)F)C[C@@H]3F)nc12 [Example 181, (S)-1-(Trifluoromethoxy)propan-2-yl (3S,4R)-3-fluoro-4-((6-methyl-3-(methylcarbamoyl)-7-(trifluoromethyl)thieno[3,2-b]pyridin-5-yl)oxy)piperidine-1-carboxylate]	< 100 nM
CNC(=O)c1csc2c(C(F)(F)F)c(Cl)c(N3CCC(OC(=O)NC4CC4)CC3)nc12 [Example 640, [1-[6-Chloro-3-(methylcarbamoyl)-7-(trifluoromethyl)thieno[3,2-b]pyridin-5-yl]-4-piperidyl] N-cyclopropylcarbamate]	< 100 nM
CNC(=O)c1csc2c(C(F)(F)F)cc(OC3(C)CN(C(=O)OC(C)(C)C)C3)nc12 [Example 269, tert-Butyl 3-methyl-3-((3-(methylcarbamoyl)-7-(trifluoromethyl)thieno[3,2-b]pyridin-5-yl)oxy)azetidine-1-carboxylate]	100 to 1000 nM

Next, values leading:

IC50	Structure (SMILES)
< 100 nM	CNC(=O)c1csc2c(C(F)(F)F)cc(N3CCC(OC(=O)N4CC5(CCN5C)C4)CC3)nc12 [Example 806, 1-(3-(Methylcarbamoyl)-7-(trifluoromethyl)thieno[3,2-b]pyridin-5-yl)piperidin-4-yl 1-methyl-1,6-diazaspiro[3.3]heptane-6-carboxylate]
< 100 nM	CNC(=O)c1csc2c(C(F)(F)F)cc(C3CCN(C(=O)O[C@@H](C)C4CC4)CC3)nc12 [Example 566, (S)-1-Cyclopropylethyl 4-(3-(methylcarbamoyl)-7-(trifluoromethyl)thieno[3,2-b]pyridin-5-yl)piperidine-1-carboxylate]
< 100 nM	CNC(=O)c1csc2c(C(F)(F)F)cc(N3CC[C@H](OC(=O)NC4CC4)[C@@H](F)C3)nc12 (racemic) [Example 492, (+/−)-trans-3-Fluoro-1-(3-(methylcarbamoyl)-7-(trifluoromethyl)thieno[3,2-b]pyridin-5-yl)piperidin-4-yl cyclopropylcarbamate]
< 100 nM	CNC(=O)c1csc2c(C(F)(F)F)cc(N3CCC(NC(=O)OCCOC(F)(F)F)CC3)nc12 [Example 520, 2-(Trifluoromethoxy)ethyl (1-(3-(methylcarbamoyl)-7-(trifluoromethyl)thieno[3,2-b]pyridin-5-yl)piperidin-4-yl)carbamate]
> 1000 nM	CNC(=O)c1csc2c(C(F)(F)F)cc(N3CCC(OC(=O)NCC4CN(C)CCO4)CC3)nc12 (stereo not shown) [Example 115, 1-(3-(Methylcarbamoyl)-7-(trifluoromethyl)thieno[3,2-b]pyridin-5-yl)piperidin-4-yl ((4-methylmorpholin-2-yl)methyl)carbamate]
100 to 1000 nM	CNC(=O)c1csc2c(C(F)(F)F)c(Cl)c(N3CCN(CC(=O)NC(C)C)CC3)nc12 [Example 636, 6-Chloro-5-[4-[2-(isopropylamino)-2-oxo-ethyl]piperazin-1-yl]-N-methyl-7-(trifluoromethyl)thieno[3,2-b]pyridine-3-carboxamide]
100 to 1000 nM	CNC(=O)c1csc2c(C(F)(F)F)cc(O[C@H]3CCN(C(=O)OC(C)(C)C)C3)nc12 [Example 593, tert-Butyl (S)-3-((3-(methylcarbamoyl)-7-(trifluoromethyl)thieno[3,2-b]pyridin-5-yl)oxy)pyrrolidine-1-carboxylate]
100 to 1000 nM	CNC(=O)c1csc2c(C(F)(F)F)cc(N3CCN(C(=O)COC(C)C)CC3)nc12 [Example 44, 5-(4-(2-Isopropoxyacetyl)piperazin-1-yl)-N-methyl-7-(trifluoromethyl)thieno[3,2-b]pyridine-3-carboxamide]
< 100 nM	CNC(=O)c1csc2c(C(F)(F)F)cc(N3CCC(Oc4cccc(C)n4)CC3)nc12 [Example 145, N-Methyl-5-(4-((6-methylpyridin-2-yl)oxy)piperidin-1-yl)-7-(trifluoromethyl)thieno[3,2-b]pyridine-3-carboxamide]
100 to 1000 nM	CC(C)NC(=O)CN1CCN(c2cc(C(F)(F)F)c3scc(C(=O)N4CCC4)c3n2)CC1 [Example 649, 2-[4-[3-(Azetidine-1-carbonyl)-7-(trifluoromethyl)thieno[3,2-b]pyridin-5-yl]piperazin-1-yl]-N-isopropyl-acetamide]
< 100 nM	CNC(=O)c1csc2c(C(F)(F)F)cc(N3CCN(C(=O)OCC4CC4)CC3)nc12 [Example 780, Cyclopropylmethyl 4-(3-(methylcarbamoyl)-7-(trifluoromethyl)thieno[3,2-b]pyridin-5-yl)piperazine-1-carboxylate]
100 to 1000 nM	CNC(=O)c1csc2c(C(F)(F)F)cc(OC3CCN(C(=O)NCC4CC4)C3)nc12 (stereo not shown) [Example 590, 5-((1-((Cyclopropylmethyl)carbamoyl)pyrrolidin-3-yl)oxy)-N-methyl-7-(trifluoromethyl)thieno[3,2-b]pyridine-3-carboxamide]
> 1000 nM	CCNC(=O)c1csc2c(C3CC3)cc(N3CCN(CC(=O)NC(C)C)CC3)nc12 [Example 420, 7-Cyclopropyl-N-ethyl-5-(4-(2-(isopropylamino)-2-oxoethyl)piperazin-1-yl)thieno[3,2-b]pyridine-3-carboxamide]
< 100 nM	CNC(=O)c1csc2c(C(F)(F)F)cc(N3CCN(Cc4nc(C(C)C)cs4)CC3)nc12 [Example 528, 5-(4-((4-Isopropylthiazol-2-yl)methyl)piperazin-1-yl)-N-methyl-7-(trifluoromethyl)thieno[3,2-b]pyridine-3-carboxamide]
100 to 1000 nM	CNC(=O)c1csc2c(C(F)(F)F)cc(N3CCC(OC(=O)N4C[C@H](N(C)C)[C@@H]4C)CC3)nc12 [Example 793, 1-(3-(Methylcarbamoyl)-7-(trifluoromethyl)thieno[3,2-b]pyridin-5-yl)piperidin-4-yl (2S,3S)-3-(dimethylamino)-2-methylazetidine-1-carboxylate]
